According to US20110039920A1, “INHIBITORS OF IKK-BETA SERINE-THERONINE PROTEIN KINASE” (CHROMA THERAPEUTICS LTD., priority 2008, published 2011):

Assays:
[1] = test system: human whole blood TNFα release; assay: LPS-stimulation of human whole blood, TNF-α by ELISA; format: cell-based; settings: inhibitor 2 hrs before LPS 100 ng/ml, 6 hrs, read-out: Inhibitor activity versus human whole blood TNFα release
Description: Whole blood was taken by venous puncture using heparinised vacutainers (Becton Dickinson) and diluted in an equal volume of RPMI1640 tissue culture media (Sigma). 100 μl was plated in V-bottomed 96 well tissue culture treated plates. 2 hrs after the addition of the inhibitor in 100 μl of RPMI1640 media, the blood was stimulated with LPS (E coli strain 005:B5, Sigma) at a final concentration of 100 ng/ml and incubated at 37° C. in 5% CO2 for 6 hrs. TNF-α levels were measured from cell-free supernatants by sandwich ELISA (R&D Systems #QTA00B)

THP-1 TNFα release = assay: LPS-stimulation of THP-1 cells, TNF-α by ELISA; format: cell-based; settings: Homo sapiens, inhibitor 2 hrs before LPS 1 μg/ml, 6 hrs, read-out: Inhibitor activity versus THP-1 TNFα release
Description: THP-1 cells were plated in 100 μl at a density of 4×10^4 cells/well in V-bottomed 96 well tissue culture treated plates and incubated at 37° C. in 5% CO2 for 16 hrs. 2 hrs after the addition of the inhibitor in 100 μl of tissue culture media, the cells were stimulated with LPS (E coli strain 005:65, Sigma) at a final concentration of 1 μg/ml and incubated at 37° C. in 5% CO2 for 6 hrs. TNF-α levels were measured from cell-free supernatants by sandwich ELISA (R&D Systems #QTA00B)

Compound: C[C@H](NCc1cccc(-c2cc(C(N)=O)c(NC(N)=O)s2)c1)C(=O)OC1CCCC1 [Example 11, Cyclopentyl N-{3-[4-carbamoyl-5-(carbamoylamino)-2-thienyl]benzyl}-L-alaninate]
- IC50 [1]: 500 to 1000 nM
- IC50 (THP-1 TNFα release): 500 to 1000 nM
